Assay results taken from patent US20230295201A1 (Gilead Sciences, Inc., priority 2020, published 2023).
pEC50: −log10 of the molar value. Like-named read-outs stand apart in the source and are kept apart here.

Columns and labels:
Assay type in all cases: cell-based
[1] = test system: HRV99; assay: HRV99 EC50
[2] = test system: HRV10; assay: HRV10 HELA EC50
[3] = test system: HRV14; assay: HRV14 HELA EC50 (cytopathic effect in H1-HeLa cells); conditions: 96 h, read-out: HRV14 HELA EC50
Experimental: H1-HeLa cells, cultured in complete RPMI 1640 medium containing 10% heat-inactivated FBS and 1% Penicillin/Streptomycin, were seeded in 96 well plates at 5000 cells/well one day prior to compound dosing and infection. The antiviral activity of each compound was measured in triplicate. Compounds were added directly to the cell cultures in serial 3-fold dilutions using the HP300 digital dispenser (Hewlett Packard, Palo Alto, CA) immediately prior to infection. The plates were transferred to BSL-2 containment and 100 μL of 1/4000 dilution of HRV14 virus stock was added to each well containing cells and serially diluted compounds. Each plate included 6 wells of infected untreated cells and 6 wells of cells containing 5 μM Rupintrivir that served as 0% and 100% virus inhibition control, respectively. Following the infection, test plates were incubated for 96 h in a tissue culture incubator set to 37° C./5% CO2. Following incubation, the H1-HeLa cells were removed from incubation and allowed to equilibrate to 25° C. Cell viability was determined by removing 100 μL of culture medium and adding 100 μL of Cell-Titer Glo viability reagent. The mixtures were incubated on a shaker for 10 minutes at 25° C., and the luminescence signal was quantified on an Envision luminescence plate reader.

[4] = test system: RSV A strain A2; assay: RSV HAE EC50 (intracellular RSV RNA by real-time PCR in HAE cells); conditions: human respiratory syncytial virus, 72 h, read-out: RSV HAE EC50
Experimental: HAE cells are cultured at the air-liquid interface and have an apical side that is exposed to the air and a basal side that is in contact with the medium. Prior to experimentation, HAE were removed from their agar-based shipping packaging and were acclimated to 37° C./5% CO2 overnight in 1 ml of HAE Assay medium (AIR-100-MM, Mattek Corp). HAE were prepared for infection by washing the apical surface twice with 400 μL of PBS (either utilizing direct pipetting methods or by running each transwell through a trough containing PBS) to remove the mucus layer. Apical chambers were drained of PBS and tapped gently onto absorbent material to remove as much PBS as possible. After washing, the cells were transferred to fresh HAE maintenance media containing 4-fold serially diluted compound, delivered to the basal side of the cell monolayer, and apically infected with 100 μL of a 1:600 dilution of RSV A strain A2 1000× stock (ABI, Columbia, MD, cat #10-124-000) in HAE assay medium for 3 hours at 37° C. in 5% CO2. The virus inoculum was removed and the apical surface of the cells was washed 3 times with PBS using either method previously described. The cells were then cultured in the presence of compound for 3 days at 37° C. Following the incubation, total RNA was extracted from the HAE cells using a MagMAX-96 Viral RNA isolation kit (Applied Biosystems, Foster City, CA, Cat #AM1836) and intracellular RSV RNA was quantified by real-time PCR. Approximately 25 ng of purified RNA was added to a PCR reaction mixture that contained 0.9 μM RSV N Forward and RSV N Reverse primers, 0.2 μM RSV N Probe and 1×Taqman RNA-to-Ct 1-Step Kit (Applied Biosystems, Foster City, CA, Cat #4392938). RNA levels were normalized using a Tagman GAPDH control primer set (Applied Biosystems, Foster City, CA, Cat #402869). Real-Time PCR Primers and Probe Used in the RSV A2 HAE Antiviral Assay: […]

| Structure (SMILES) | pEC50 [1] | pEC50 [2] | pEC50 [3] | pEC50 ([4]; HAE) | pEC50 ([4]; HAE cells, RSV A2, 3 days) |
| --- | --- | --- | --- | --- | --- |
| C[C@H](NP(=O)(OC[C@@]1(C#N)O[C@@H](c2ccc3c(N)ncnn23)[C@H](O)[C@@H]1O)Oc1ccccc1)C(=O)OCC1CC1 (mixture of isomers) [Example 8, (2S)-cyclopropylmethyl 2-(((((2R,3S,4R,5S)-5-(4-aminopyrrolo[2,1-f][1,2,4]triazin-7-yl)-2-cyano-3,4-dihydroxytetrahydrofuran-2-yl)methoxy)(phenoxy)phosphoryl)amino)propanoate] | 5.87 | 6.75 | 6.21 | – | – |
| CC(C)OC(=O)[C@H](C)NP(=O)(OC[C@@]1(C#N)O[C@@H](c2ccc3c(N)ncnn23)[C@H](O)[C@@H]1O)Oc1ccccc1 (mixture of isomers) [Example 77, Isopropyl ((((2R,3S,4R,5S)-5-(4-aminopyrrolo[2,1-f][1,2,4]triazin-7-yl)-2-cyano-3,4-dihydroxytetrahydrofuran-2-yl)methoxy)(phenoxy)phosphoryl)-L-alaninate] | 5.31 | 6.20 | 5.74 | – | – |
| CCC(CC)COC(=O)[C@H](CC)NP(=O)(OC[C@@]1(C#N)O[C@@H](c2ccc3c(N)ncnn23)[C@H](O)[C@@H]1O)Oc1ccccc1 (mixture of isomers) [Example 88, (2S)-2-ethylbutyl 2-(((((2R,3S,4R,5S)-5-(4-aminopyrrolo[2,1-f][1,2,4]triazin-7-yl)-2-cyano-3,4-dihydroxytetrahydrofuran-2-yl)methoxy)(phenoxy)phosphoryl)amino)butanoate] | 5.34 | 6.22 | 5.77 | – | – |
| CC[C@H](NP(=O)(OC[C@@]1(C#N)O[C@@H](c2ccc3c(N)ncnn23)[C@H](O)[C@@H]1O)Oc1ccccc1)C(=O)OC1CCCCC1 (mixture of isomers) [Example 103, (2S)-cyclohexyl 2-(((((2R,3S,4R,5S)-5-(4-aminopyrrolo[2,1-f][1,2,4]triazin-7-yl)-2-cyano-3,4-dihydroxytetrahydrofuran-2-yl)methoxy)(phenoxy)phosphoryl)amino)butanoate] | 5.32 | 6.04 | 5.59 | – | – |
| CCCCCCCCCCCC(=O)OCCNP(=O)(OC[C@@]1(C#N)O[C@@H](c2ccc3c(N)ncnn23)[C@H](O)[C@@H]1O)Oc1ccccc1 (mixture of isomers) [Example 181, 2-(((((2R,3S,4R,5S)-5-(4-aminopyrrolo[2,1-f][1,2,4]triazin-7-yl)-2-cyano-3,4-dihydroxytetrahydrofuran-2-yl)methoxy)(phenoxy)phosphoryl)amino)ethyl dodecanoate] | – | – | – | 6.67 | – |
| C[C@H](N[P@](=O)(OC[C@@]1(C#N)O[C@@H](c2ccc3c(N)ncnn23)[C@H](O)[C@@H]1O)Oc1ccccc1)C(=O)O[C@H]1CC[C@H](C(F)(F)F)CC1 (single isomer, unassigned) [Example 18] | – | – | – | 7.57 | – |
| C[C@H](N[P@](=O)(OC[C@@]1(C#N)O[C@@H](c2ccc3c(N)ncnn23)[C@H](O)[C@@H]1O)Oc1ccccc1)C(=O)O[C@H]1CC[C@H](C(C)(C)C)CC1 (single isomer, unassigned) [Example 22] | – | – | – | 7.72 | – |
| CCC(CC)COC(=O)[C@H](C)N[P@](=O)(OC[C@@]1(C#N)O[C@@H](c2ccc3c(N)ncnn23)[C@H](O)[C@@H]1O)Oc1ccccc1 (single isomer, unassigned) [Example 25] | – | – | – | 6.82 | – |
| CCCCCCCCCCCCCCCCOCCCOP(=O)(O)OC[C@@]1(C#N)O[C@@H](c2ccc3c(N)ncnn23)[C@H](O)[C@@H]1O [Example 149, ((2R,3S,4R,5S)-5-(4-aminopyrrolo[2,1-f][1,2,4]triazin-7-yl)-2-cyano-3,4-dihydroxytetrahydrofuran-2-yl)methyl (3-(hexadecyloxy)propyl) hydrogen phosphate] | – | – | – | – | 6.73 |
| CCCCCCCCCCCCOC(=O)[C@H](C)NP(=O)(OC[C@@]1(C#N)O[C@@H](c2ccc3c(N)ncnn23)[C@H](O)[C@@H]1O)Oc1ccccc1 (stereo partly drawn) [Example 191, dodecyl ((((2R,3S,4R,5S)-5-(4-aminopyrrolo[2,1-f][1,2,4]triazin-7-yl)-2-cyano-3,4-dihydroxytetrahydrofuran-2-yl)methoxy)(phenoxy)phosphoryl)-L-alaninate] | – | – | – | 7.96 | – |
